Columns and labels:
[1] = test system: GI transit; conditions: rat, in vivo
[2] = in vivo; conditions: rat
[3] = test system: rats; conditions: rat, in vivo
[4] = in vivo; conditions: dog
[5] = test system: gross behavioral and cardiovascular effects; conditions: rat, in vivo
[6] = pH 4
[7] = test system: dogs; conditions: dog, in vivo
[8] = test system: respiratory minute volume responses to CO2; conditions: rat, in vivo

CSCC[C@@H]1NC(=O)[C@H](CC(C)C)NC(=O)[C@H](CCCNC(=N)N)NC(=O)[C@H](CO)NC(=O)[C@@H]2CSSC[C@@H]3NC(=O)[C@H](CO)NC(=O)CNC(=O)[C@H]([C@@H](C)O)NC(=O)[C@H](CSSC[C@H](N)C(=O)N[C@@H](CCCCN)C(=O)NCC(=O)N[C@@H](CCCCN)C(=O)NCC(=O)N[C@@H](C)C(=O)N[C@@H](CCCCN)C(=O)N2)NC(=O)[C@H](CSSC[C@@H](C(N)=O)NC(=O)[C@H](CCCCN)NC(=O)CNC(=O)[C@H](CO)NC(=O)[C@H](CCCNC(=N)N)NC3=O)NC(=O)[C@H](CC(=O)O)NC(=O)[C@H](Cc2ccc(O)cc2)NC1=O [ziconotide]
GI transit [1]: does not itself affect GI tract motility
level at 672 h [2]: < 4 ng/mL
body weight, food intake or clinical pathology parameters [3]: no treatment-related changes
mean plasma drug level relative to human [3]: approximately 3 fold
target organ toxicity at termination [3]: nor was any target organ toxicity identified
level at 672 h [4]: < 4 ng/mL
gross behavioral and cardiovascular effects [5]: well tolerated
stability in solution [6]: stable at 45 °C for weeks
body weight, food intake or clinical pathology parameters [7]: no treatment-related changes
granuloma formation at the catheter tip [7]: no granuloma formation
mean plasma drug level relative to human [7]: ~10 fold
moribund euthanasia due to CNS effects (tremors, shaking-behavior, ataxia) [7]: 4/16
target organ toxicity at termination [7]: nor was any target organ toxicity identified
respiratory depression, subacute administration [8]: did not induce respiratory depression
respiratory minute volume responses to CO2 / acute respiratory depression [8]: did not depress

— patent publication US10307463B2 (priority 2003, dated 2019)
